Laboratory results from US12371454B2, “Cyclic peptide compound having Kras inhibitory action” (priority 2019, dated 2025).
Starred links: 1 amine or outer side, 2 acyl side, 3 side chain; linkers in the order of their positions; H or OH if unused. Positions of bridges follow the written chain, without caps; N, C: chain ends. Non-standard residues stand in square brackets, D forms with d. Residues, ends and D or L forms follow the SMILES beside them. *: point of attachment. hPhe(3,5-F2-4-CF3) = N[C@@H](CCc1cc(F)c(C(F)(F)F)c(F)c1)C(=O)O; hPhe(3-Cl-4-CF3) = N[C@@H](CCc1ccc(C(F)(F)F)c(Cl)c1)C(=O)O; hPhe(3-F,4-CF3) = N[C@@H](CCc1ccc(C(F)(F)F)c(F)c1)C(=O)O; NMePhe(4-CF3) = CN[C@@H](Cc1ccc(C(F)(F)F)cc1)C(=O)O; NMePhe(4-Cl) = CN[C@@H](Cc1ccc(Cl)cc1)C(=O)O; X4 = O=C([C@H](Cc1cc(F)cc(Cl)c1)N[*:1])[*:2]; NMePhe(4-Me) = CN[C@@H](Cc1ccc(C)cc1)C(=O)O; NMedβ3hAla = C[C@H](CC(=O)[*:2])N(C)[*:1]; NMeGly(cPent) = CN[C@H](C(=O)O)C1CCCC1; Phe(3-I) = N[C@@H](Cc1cccc(I)c1)C(=O)O; Pro(4,4-F2) = O=C(O)[C@@H]1CC(F)(F)CN1; NMeY = CN[C@@H](Cc1ccc(O)cc1)C(=O)O; NMeCha = CN[C@@H](CC1CCCCC1)C(=O)O; NMehLeu = CN[C@@H](CCC(C)C)C(=O)O; Hyp = O=C(O)[C@@H]1C[C@@H](O)CN1; NMeChg = CN[C@H](C(=O)O)C1CCCCC1; NMeF = CN[C@@H](Cc1ccccc1)C(=O)O; NMeE = CN[C@@H](CCC(=O)O)C(=O)O; NMeβAla = CN(CCC(=O)[*:2])[*:1]; NMeD = CN[C@@H](CC(=O)O)C(=O)O; NMeL = CN[C@@H](CC(C)C)C(=O)O; Cba = N[C@@H](CC1CCC1)C(=O)O; dNMeAbu = CC[C@@H](NC)C(=O)O; NMeV = CN[C@H](C(=O)O)C(C)C; d(β3hA) = C[C@@H](N)CC(=O)O; NMeAbu = CC[C@H](NC)C(=O)O; NMeA = CN[C@@H](C)C(=O)O; NMeAib = CNC(C)(C)C(=O)O; Nle = CCCC[C@H](N)C(=O)O; Piperidide = C1CCN(*)CC1; Pra = C#CC[C@H](N)C(=O)O; Pyrrolidide = C1CCN(*)C1; dNMeA = CN[C@H](C)C(=O)O; Ac5c = NC1(C(=O)O)CCCC1; Aze = O=C(O)[C@@H]1CCN1; Ac4c = NC1(C(=O)O)CCC1; Sar = CNCC(=O)O

What follows are compounds tested against T1, Kras and SOS1 (biotin-tagged human Kras loaded with GDP, His-tagged human SOS1) (Homo sapiens, UniProt P01116, G12D) (assay: Protein-protein interaction inhibition between Kras and SOS1 (KrasGl2D-SOS PPI) using AlphaScreen). Conditions: AlphaScreen; biotin-tagged human Kras loaded with GDP, His-tagged human SOS1; read-out: KRAS G12D-SOS PPI IC50.
T1 construct: made in house; host or cells: E. coli (stated for Kras only)
Assay type: binding
Outline: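 AlphaScreen format: Ni donor beads capture His-SOS1, streptavidin acceptor beads capture biotinylated Kras (E. coli-expressed, GDP-loaded post-purification). Excite 680 nm, read 520-620 nm.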

T1 sequence (P01116 1-188 isoform P01116-2 G12D): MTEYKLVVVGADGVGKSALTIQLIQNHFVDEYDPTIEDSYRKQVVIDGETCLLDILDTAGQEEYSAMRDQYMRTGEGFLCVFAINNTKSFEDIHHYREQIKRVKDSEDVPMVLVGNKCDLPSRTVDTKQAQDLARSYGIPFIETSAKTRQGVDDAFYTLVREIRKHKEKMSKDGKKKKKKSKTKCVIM

Row | SMILES | IC50 [nM]
1 | CC[C@H](C)[C@@H]1NC(=O)[C@H](C)N(C)C(=O)C[C@@H](C)NC(=O)[C@H](C2CCCC2)N(C)C(=O)C2(CCCC2)NC(=O)[C@@H]2CCCN2C(=O)[C@H](CCc2ccc(C(F)(F)F)c(Cl)c2)NC(=O)[C@@H](C)N(C)C(=O)[C@H](CC)N(C)C(=O)CN(C)C(=O)CN(C)C1=O [Compound 413] (cyclo([Ac5c][NMeGly(cPent)][d(β3hA)][NMeA]I[Sar][Sar][NMeAbu][dNMeA][hPhe(3-Cl-4-CF3)]P)) | 50
2 | CC[C@H](C)[C@@H]1NC(=O)[C@H](CC(C)C)N(C)C(=O)CCN(C)C(=O)[C@H](C(C)C)N(C)C(=O)C2(CCCC2)NC(=O)[C@@H]2CCCN2C(=O)[C@H](CCc2ccc(C(F)(F)F)c(F)c2)NC(=O)CN(C)C(=O)[C@H](CC2CCCCC2)N(C)C(=O)CN(C)C(=O)CN(C)C1=O [Compound 879] (cyclo([Ac5c][NMeV][NMeβAla][NMeL]I[Sar][Sar][NMeCha][Sar][hPhe(3-F,4-CF3)]P)) | 36
3 | CC[C@H](C)[C@@H]1NC(=O)[C@H](CC(C)C)N(C)C(=O)C[C@@H](C(=O)N2CCCCC2)N(C)C(=O)[C@H](C(C)C)N(C)C(=O)C2(CCCC2)NC(=O)[C@@H]2CCCN2C(=O)[C@H](CCc2ccc(C(F)(F)F)c(Cl)c2)NC(=O)CN(C)C(=O)[C@H](CC2CCCCC2)N(C)C(=O)[C@@H]2CCN2C(=O)[C@H](CCC(=O)NC)N(C)C1=O [Compound 180] ([NMeL]I[NMeE](NHMe)[Aze][NMeCha][Sar][hPhe(3-Cl-4-CF3)]P[Ac5c][NMeV][NMeD]-Piperidide; lactam N-11) | 11
4 | CC[C@H](C)[C@@H]1NC(=O)[C@H](C)N(C)C(=O)C[C@@H](C(=O)N2CCCC2)NC(=O)[C@H](CC(C)C)N(C)C(=O)[C@H](Cc2ccccc2)N(C)C(=O)[C@H](CC(C)C)NC(=O)[C@H](Cc2cc(F)cc(Cl)c2)NC(=O)CN(C)C(=O)[C@H](Cc2ccc(Cl)cc2)N(C)C(=O)CN(C)C(=O)CN(C)C1=O [Compound 657] ([NMeA]I[Sar][Sar][NMePhe(4-Cl)][Sar][X4]L[NMeF][NMeL]D-Pyrrolidide; lactam N-11) | 310
5 | CC[C@H](C)[C@@H]1NC(=O)[C@H](CC(C)C)N(C)C(=O)C[C@@H](C)N(C)C(=O)[C@H](C2CCCCC2)N(C)C(=O)C2(CCCC2)NC(=O)[C@@H]2CCCN2C(=O)[C@H](CCc2ccc(C(F)(F)F)c(Cl)c2)NC(=O)CN(C)C(=O)[C@H](CC2CCCCC2)N(C)C(=O)[C@@H]2CCN2C(=O)[C@H](C)N(C)C1=O [Compound 1813] (cyclo([Ac5c][NMeChg][NMedβ3hAla][NMeL]I[NMeA][Aze][NMeCha][Sar][hPhe(3-Cl-4-CF3)]P)) | 36
6 | CCCC[C@@H]1NC(=O)[C@H](Cc2cccc(I)c2)NC(=O)CN(C)C(=O)[C@H](Cc2ccc(Cl)cc2)N(C)C(=O)CN(C)C(=O)CN(C)C(=O)[C@H]([C@@H](C)CC)NC(=O)[C@H](CC(C)C)N(C)C(=O)C[C@@H](C(=O)N2CCCCC2)N(C)C(=O)[C@H](CC2CCC2)NC(=O)C(C)(C)N(C)C1=O [Compound 1422] ([NMeL]I[Sar][Sar][NMePhe(4-Cl)][Sar][Phe(3-I)][Nle][NMeAib][Cba][NMeD]-Piperidide; lactam N-11) | 16
7 | CC[C@H](C)[C@@H]1NC(=O)[C@H](C)N(C)C(=O)C[C@@H](C)N(C)C(=O)[C@H](CC(C)C)NC(=O)C(C)(C)N(C)C(=O)[C@H](CC(C)C)NC(=O)[C@H](CCc2ccc(C(F)(F)F)c(Cl)c2)NC(=O)[C@@H](C)N(C)C(=O)[C@H](Cc2ccc(C)cc2)N(C)C(=O)[C@@H]2CCN2C(=O)CN(C)C1=O [Compound 1382] (cyclo([Aze][NMePhe(4-Me)][dNMeA][hPhe(3-Cl-4-CF3)]L[NMeAib]L[NMedβ3hAla][NMeA]I[Sar])) | 230
8 | CC[C@@H]1C(=O)NC2(CCCC2)C(=O)N(C)[C@@H](C2CCCC2)C(=O)N(C)[C@H](C(=O)N2CCCCC2)CC(=O)N(C)[C@@H](CC(C)C)C(=O)N[C@@H]([C@@H](C)CC)C(=O)N(C)[C@@H](C)C(=O)N2CC[C@H]2C(=O)N(C)[C@@H](CC2CCCCC2)C(=O)N(C)CC(=O)N[C@@H](CCc2ccc(C(F)(F)F)c(Cl)c2)C(=O)N1C [Compound 1441] ([NMeL]I[NMeA][Aze][NMeCha][Sar][hPhe(3-Cl-4-CF3)][dNMeAbu][Ac5c][NMeGly(cPent)][NMeD]-Piperidide; lactam N-11) | 6.4
9 | C#CC[C@@H]1NC(=O)[C@H](Cc2cccc(I)c2)NC(=O)CN(C)C(=O)[C@H](Cc2ccc(C(F)(F)F)cc2)N(C)C(=O)CN(C)C(=O)CN(C)C(=O)[C@H]([C@@H](C)CC)NC(=O)[C@H](CC(C)C)N(C)C(=O)C[C@@H](C(=O)N2CCCCC2)N(C)C(=O)[C@H](CC(C)C)NC(=O)C(C)(C)N(C)C1=O [Compound 1361] ([NMeL]I[Sar][Sar][NMePhe(4-CF3)][Sar][Phe(3-I)][Pra][NMeAib]L[NMeD]-Piperidide; lactam N-11) | 24
10 | CC[C@H](C)[C@@H]1NC(=O)[C@H](C)N(C)C(=O)C[C@@H](C(=O)N2CCCCC2)N(C)C(=O)[C@H](C(C)C)N(C)C(=O)C2(CCCC2)NC(=O)[C@@H]2CCCN2C(=O)[C@H](CCc2ccc(C(F)(F)F)c(Cl)c2)NC(=O)CN(C)C(=O)[C@H](CC2CCCCC2)N(C)C(=O)[C@@H]2CCN2C(=O)[C@H](CCC(C)C)N(C)C1=O [Compound 1595] ([NMeA]I[NMehLeu][Aze][NMeCha][Sar][hPhe(3-Cl-4-CF3)]P[Ac5c][NMeV][NMeD]-Piperidide; lactam N-11) | 15
11 | CCO[C@@H]1C[C@H]2C(=O)NC3(CCC3)C(=O)N(C)[C@@H](C3CCCCC3)C(=O)N(C)[C@H](C)CC(=O)N(C)[C@@H](CC(C)C)C(=O)N[C@@H]([C@@H](C)CC)C(=O)N(C)[C@@H](C)C(=O)N3CC[C@H]3C(=O)N(C)[C@@H](Cc3ccc(C(F)(F)F)cc3)C(=O)N(C)CC(=O)N[C@@H](CCc3ccc(C(F)(F)F)c(Cl)c3)C(=O)N2C1 [Compound 698] (cyclo([Ac4c][NMeChg][NMedβ3hAla][NMeL]I[NMeA][Aze][NMePhe(4-CF3)][Sar][hPhe(3-Cl-4-CF3)][Hyp](Et))) | 23
12 | CC[C@H](C)[C@@H]1NC(=O)[C@H](CC(C)C)N(C)C(=O)C[C@@H](C)N(C)C(=O)[C@H](C2CCCCC2)N(C)C(=O)C2(CCC2)NC(=O)[C@@H]2CC(F)(F)CN2C(=O)[C@H](CCc2cc(F)c(C(F)(F)F)c(F)c2)NC(=O)CN(C)C(=O)[C@H](CC2CCCCC2)N(C)C(=O)CN(C)C(=O)CN(C)C1=O [Compound 738] (cyclo([Ac4c][NMeChg][NMedβ3hAla][NMeL]I[Sar][Sar][NMeCha][Sar][hPhe(3,5-F2-4-CF3)][Pro(4,4-F2)])) | 15
13 | CC[C@H](C)[C@@H]1NC(=O)[C@H](CC(C)C)N(C)C(=O)C[C@@H](C(=O)N2CCCCC2)N(C)C(=O)[C@H](C2CCCCC2)N(C)C(=O)C2(CCCC2)NC(=O)[C@H](Cc2ccc(OC)cc2)N(C)C(=O)[C@H](CCc2ccc(C(F)(F)F)c(Cl)c2)NC(=O)CN(C)C(=O)[C@H](CC2CCCCC2)N(C)C(=O)CN(C)C(=O)CN(C)C1=O [Compound 2171] ([NMeL]I[Sar][Sar][NMeCha][Sar][hPhe(3-Cl-4-CF3)][NMeY](Me)[Ac5c][NMeChg][NMeD]-Piperidide; lactam N-11) | 120
14 | CC[C@H](C)[C@@H]1NC(=O)[C@H](C)N(C)C(=O)C[C@@H](C)N(C)C(=O)[C@H](CC(C)C)NC(=O)C(C)(C)N(C)C(=O)[C@H](CC(C)C)NC(=O)[C@H](CCc2ccc(C(F)(F)F)c(Cl)c2)NC(=O)CN(C)C(=O)[C@H](Cc2ccc(C)cc2)N(C)C(=O)[C@@H]2CCN2C(=O)CN(C)C1=O [Compound 1377] (cyclo([Aze][NMePhe(4-Me)][Sar][hPhe(3-Cl-4-CF3)]L[NMeAib]L[NMedβ3hAla][NMeA]I[Sar])) | 5.8
